For two molecules, Ausfälle and Schuppenbild results are on record in patent EP0167710A1, “Use of benomyl for the manufacture of a medicament against ichthyophthyriasis” (Eduro World Investments Inc., priority 1984, dated 1986).

For assay [1], the system named is Ichthiophthyriasis auslösenden Parasiten. The experiment in a line: Treatment of Ichthyophthyriasis-infected fish in aquaria (Beispiel 2). Format: in vivo. The following applies: after 7 Behandlungstagen; 18 Neonsalmler per tank; conditions of Beispiel 1, repeat dose equal to the initial dose. Here is the method:
(§1) Unter gleichen Bedingungen wurden in drei Fischbehältern A, B und C (40 Liter) je 16 Sumatrabarben ausgesetzt. Die Wassertemperatur betrug 25 + 1°C. Nach eintägiger Haltung wurden die Fische in Kontakt mit Ichthiophthyriasis auslösenden Parasiten gebracht. Nach visuell sichtbarer Infektion wurden zugesetzt: • Im Aquarium A: Reines Wasser • Im Aquarium B: 1-(N-Butylcarbamoyl)-2-(methoxycarbonyl-amino)-benzimidazol (als pulverförmiges Gemisch. Konzentration an Wirkstoff 0,2 mg/ml) • Im Aquarium C: Malachitgrün (Wirkstoffkonzentrat-0,03 mg/ml)
(§2) Die Zugabe wurde mit der halben Dosierung nach 3 bis 5 Tagen wiederholt.
Unter den Bedingungen des Beispiels 1 wurden jeweils 18 Neonsalmler behandelt. Die Nachdosierung erfolgte jedoch in Höhe der Anfangsdosierung.

For assay [2] the test system is unchanged. The experiment in a line: Treatment of Ichthyophthyriasis-infected fish in aquaria (Beispiel 1). The following applies: 6 days after start of treatment, 16 Sumatrabarben per 40 Liter tank, Benomyl 0,2 mg/ml, Malachitgrün 0,03 mg/ml, repeated at half dose after 3 bis 5 Tagen; for Ausfälle: 25 + 1°C. Format: in vivo. As to the method:
as §1, §2

For the molecule `CCCCNC(=O)n1c(NC(=O)OC)nc2ccccc21` [Benomyl], the Ausfälle result in assay [1] is reported as “Keine Ausfälle”. Moreover, in assay [2], the Ausfälle was determined as 2 Tieren pro Becken and the Schuppenbild result is “normalisiert”.

`CN(C)c1ccc(C(=C2C=CC(=[N+](C)C)C=C2)c2ccccc2)cc1` [Malachitgrün]: in assay [1], the Ausfälle entry was “Ein Ausfall”. Moreover, in assay [2], the Ausfälle amounted to 2 Tieren pro Becken and the Schuppenbild entry is “normalisiert”.
